{"source": "patent US11964953B2", "about": "“Substituted aminothiazoles as DGKzeta inhibitors for immune activation” (Bayer Aktiengesellschaft, priority 2020, dated 2024)", "data": [{"target": "human DGKζ (Homo sapiens (Human), UniProt Q13574)", "sequence (Q13574 other isoform, or with tags, fused parts or gaps)": "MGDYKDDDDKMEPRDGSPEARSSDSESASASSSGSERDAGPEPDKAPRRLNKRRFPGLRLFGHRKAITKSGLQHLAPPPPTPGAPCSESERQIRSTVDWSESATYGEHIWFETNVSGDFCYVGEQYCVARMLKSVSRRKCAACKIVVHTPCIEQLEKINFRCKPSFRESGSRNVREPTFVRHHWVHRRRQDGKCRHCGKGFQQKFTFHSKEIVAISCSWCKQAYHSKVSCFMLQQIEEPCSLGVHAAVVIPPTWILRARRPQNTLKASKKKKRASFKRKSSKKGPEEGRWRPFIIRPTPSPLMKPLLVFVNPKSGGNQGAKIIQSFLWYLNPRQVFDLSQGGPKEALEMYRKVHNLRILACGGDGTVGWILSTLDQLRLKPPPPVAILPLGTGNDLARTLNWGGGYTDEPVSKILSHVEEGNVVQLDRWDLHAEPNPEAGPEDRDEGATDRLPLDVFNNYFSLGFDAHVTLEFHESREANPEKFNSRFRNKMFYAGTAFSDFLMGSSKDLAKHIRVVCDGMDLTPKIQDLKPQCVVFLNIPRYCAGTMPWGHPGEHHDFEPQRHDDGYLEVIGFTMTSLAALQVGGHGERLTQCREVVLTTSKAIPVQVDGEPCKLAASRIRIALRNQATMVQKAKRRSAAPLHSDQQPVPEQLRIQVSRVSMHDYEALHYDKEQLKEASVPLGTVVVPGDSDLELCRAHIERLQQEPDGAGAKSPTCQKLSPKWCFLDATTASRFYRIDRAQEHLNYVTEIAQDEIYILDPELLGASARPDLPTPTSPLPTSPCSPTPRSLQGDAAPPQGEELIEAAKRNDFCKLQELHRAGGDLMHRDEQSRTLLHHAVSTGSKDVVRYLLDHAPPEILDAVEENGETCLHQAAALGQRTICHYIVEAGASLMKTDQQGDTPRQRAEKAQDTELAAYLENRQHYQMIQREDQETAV", "assay": "Human DGKζ kinase activity inhibition assay (ADP-Glo)", "assay_type": "biochemical", "conditions": "in vitro human DGKζ kinase activity inhibition assay; read-out: IC50", "procedure,_shortened": "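ADP-Glo luminescence, reflecting ADP produced, served as the readout of activity. Full-length human DGKζ, FLAG-tagged at the C-terminus and insect-cell expressed, was used; lipid substrate mix was sonicated with octyl-β-D-glucopyranoside in 50 mM MOPS pH 7.4.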", "units": {"IC50": "nM"}, "values": [{"smiles": "COc1ccc(C(=O)c2sc(N(c3ccc(F)c(Cl)c3)C(C)C(N)=O)nc2N)cc1", "note": "(racemic) [Example 161, rac-2-(N-[4-amino-5-(4-methoxybenzoyl)thiazol-2-yl]-3-chloro-4-fluoro-anilino)propanamide]", "IC50": 15}, {"smiles": "CC(C(N)=O)N(c1ccc(C(F)F)cc1)c1nc(N)c(C(=O)c2ccc(Cl)cc2)s1", "note": "(racemic) [Example 244, rac-2-[N-[4-amino-5-(4-chlorobenzoyl)thiazol-2-yl]-4-(difiuoromethyl)anilino]propanamide]", "IC50": 30}, {"smiles": "CC(C(N)=O)N(c1ccc(F)cc1)c1nc(N)c(C(=O)c2ccc(OC(F)F)cc2)s1", "note": "(single isomer, unassigned) [Example 44.2, 2-(N-[4-amino-5-[4-(difluoromethoxy)benzoyl]thiazol-2-yl]-4-fluoro-anilino)propanamide]", "IC50": 6.72}, {"smiles": "CC(C(N)=O)N(c1ccc(F)cc1)c1nc(N)c(C(=O)c2ccc(Cn3cccn3)cc2)s1", "note": "(racemic) [Example 179, rac-2-(N-[4-amino-5-[4-(pyrazol-1-ylmethyl)benzoyl]thiazol-2-yl]-4-fluoro-anilino)propanamide]", "IC50": 57}, {"smiles": "CC(C(N)=O)N(c1ccc(OCc2ccccc2)cc1)c1nc(N)c(C(=O)c2ccc(OC(F)F)cc2)s1", "note": "(single isomer, unassigned) [Example 182.2, 2-(N-[4-amino-5-[4-(difluoromethoxy)benzoyl]thiazol-2-yl]-4-benzyloxy-anilino)propanamide]", "IC50": 10500}, {"smiles": "CC(C(N)=O)N(c1ccc(F)cc1)c1nc(N)c(C(=O)c2ccc(N3CC4CCC(C4)C3)nc2)s1", "note": "(racemic) [Example 280, rac-2-(N-[4-amino-5-[6-(3-azabicyclo[3.2.1]octan-3-yl)pyridine-3-carbonyl]thiazol-2-yl]-4-fluoro-anilino)propanamide]", "IC50": 43}, {"smiles": "CC(C(N)=O)N(c1ccc(F)cc1)c1nc(N)c(C(=O)c2ccc(OCC(=O)NCc3ccccc3F)cc2)s1", "note": "(racemic) [Example 96, rac-2-(N-[4-amino-5-[4-[2-[(2-fluorophenyl)methylamino]-2-oxo-ethoxy]benzoyl]thiazol-2-yl]-4-fluoro-anilino)propanamide]", "IC50": 31.4}, {"smiles": "CC(C(N)=O)N(c1ccc(F)cc1)c1nc(N)c(C(=O)c2ccc(OCC(=O)Nc3cccc(C(N)=O)c3)cc2)s1", "note": "(racemic) [Example 107, rac-3-[[2-[4-[4-amino-2-(N-[2-amino-1-methyl-2-oxo-ethyl]-4-fluoro-anilino)thiazole-5-carbonyl]phenoxy]acetyl]amino]benzamide]", "IC50": 77.3}, {"smiles": "COc1ccc(C(=O)c2sc(N(c3ccc(F)cc3)C(C)C(N)=O)nc2N)c(F)c1", "note": "(racemic) [Example 23, rac-2-(N-[4-amino-5-(2-fluoro-4-methoxy-benzoyl)thiazol-2-yl]-4-fluoro-anilino)propanamide]", "IC50": 130}, {"smiles": "CC(C(N)=O)N(c1ccc(N(C)C)cc1)c1nc(N)c(C(=O)c2ccccc2)s1", "note": "(racemic) [Example 2, rac-2-[N-(4-amino-5-benzoyl-thiazol-2-yl)-4-(dimethylamino)anilino]propanamide]", "IC50": 935}, {"smiles": "CC(C(N)=O)N(c1ccc(F)cc1)c1nc(N)c(C(=O)c2ccc(OC(F)(F)F)cc2)s1", "note": "(single isomer, unassigned) [Example 40.2, 2-(N-[4-amino-5-[4-(trifluoromethoxy)benzoyl]thiazol-2-yl]-4-fluoro-anilino)propanamide]", "IC50": 7.08}, {"smiles": "CC(C(N)=O)N(c1ccc(F)cc1)c1nc(N)c(C(=O)c2ccc(OCC(=O)NCc3nc4ccccc4[nH]3)cc2)s1", "note": "(racemic) [Example 98, rac-2-(N-[4-amino-5-[4-[2-(1H-benzimidazol-2-ylmethylamino)-2-oxo-ethoxy]benzoyl]thiazol-2-yl]-4-fluoro-anilino)propanamide]", "IC50": 73.5}, {"smiles": "CC(Oc1ccc(C(=O)c2sc(N(c3ccc(F)cc3)C(C)C(N)=O)nc2N)cc1)C(N)=O", "note": "(racemic) [Example 69, 2-(N-[4-amino-5-[4-(2-amino-1-methyl-2-oxo-ethoxy)benzoyl]thiazol-2-yl]-4-fluoro-anilino)propanamide]", "IC50": 64.1}]}]}
